Source: US6284896A, “Abeo-ergoline derivatives as 5HT1A ligands” (Pharmacia & Upjohn S.p.A., priority 1994, dated 2001)
Read-outs that look alike come from different tables or passages of the source.

Columns and labels:
5-HT1A receptor = target: T1, 5-HT1A receptor (Rattus norvegicus, UniProt P19327); assay: Affinity for Serotonin 1A receptor, 3H-8-OH-DPAT binding test (rat hippocampus synaptosome membranes)
T1 construct: Freezed hippocampus dissected out from rats were homogenized; from tissue; host or cells: rat hippocampus, crude synaptosome membranes
T1 sequence (P19327 1-422): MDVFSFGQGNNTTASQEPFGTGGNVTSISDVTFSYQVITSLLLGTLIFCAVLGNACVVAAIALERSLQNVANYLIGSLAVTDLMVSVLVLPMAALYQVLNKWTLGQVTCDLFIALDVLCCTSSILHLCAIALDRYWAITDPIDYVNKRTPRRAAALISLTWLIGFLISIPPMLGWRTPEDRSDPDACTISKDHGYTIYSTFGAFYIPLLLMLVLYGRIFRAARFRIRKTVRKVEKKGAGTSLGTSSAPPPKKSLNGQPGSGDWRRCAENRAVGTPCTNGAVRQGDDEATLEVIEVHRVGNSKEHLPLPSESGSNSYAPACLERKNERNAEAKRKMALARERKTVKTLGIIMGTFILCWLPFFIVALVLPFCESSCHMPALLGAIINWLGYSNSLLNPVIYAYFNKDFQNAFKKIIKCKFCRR
Protocol: Experiment 1: Affinity for Serotonin 1A (^5 KT1A) Receptor [^3 H-8-Hydroxy-2-dipropylaminotetralin (^3-8 -OH-DPTA)-Binding Test].
Preparation of crude synaptosome fraction and binding assay were conducted in accordance with the method reported in Journal of Neurochemistry, vol.
The supernatant was centrifuged at 40,000×g for 20 minutes at 0° C. and the resulting pellet was homogenized in 40 volumes of the above buffer and incubated at 37° C. for 10 minutes.
After completion of reaction, the suspension was centrifuged at 40,000×g for 20 minutes at 0° C. The resulting pellet was washed twice by resuspension in 40 volumes of the above buffer and centrifugation, and finally suspended in 60 volumes of ice-cold 50 mM Tris-HCl buffer (pH 7.4) containing 1 EM manganese chloride for use in the next assay.
To the aliquots (900 μl) of synaptosome membranes solution were added 50 μl of tritiated 8-OH-DPAT solution at the terminal concentration of 0.2 nM and 50 μl of test compound solution or 50 μl of its medium, and incubated at 37° C. for 10 minutes. Then to the mixture were added 5 ml of ice-cold 50 mM Tris-HCl buffer (pH 7.4) rapidly vacuum-filtered through Whatman^R GF/B. filters and was washed twice with 5 ml of the same buffer. The radioactivity of the residue remaining on the filters was measured by liquid scintillation counter. Non specific binding was determined under the presence of 10^-5 M serotonin (5-HT).

5-HT2 receptor = target: T2, 5-HT2 receptor (Rattus norvegicus, UniProt P14842); assay: Affinity for Serotonin 2 (5-HT2) receptor, 3H-Ketanserin binding test (rat cerebral cortex); settings: 3H-Ketanserin 0.2 mM (so in the source), 37° C., 20 minutes, read-out: Binding Profile IC50 5-HT2
T2 construct: Freezed cerebral cortex dissected out from rats were homogenized; from tissue; host or cells: rat cerebral cortex, crude synaptosome membranes
T2 sequence (P14842 whole entry): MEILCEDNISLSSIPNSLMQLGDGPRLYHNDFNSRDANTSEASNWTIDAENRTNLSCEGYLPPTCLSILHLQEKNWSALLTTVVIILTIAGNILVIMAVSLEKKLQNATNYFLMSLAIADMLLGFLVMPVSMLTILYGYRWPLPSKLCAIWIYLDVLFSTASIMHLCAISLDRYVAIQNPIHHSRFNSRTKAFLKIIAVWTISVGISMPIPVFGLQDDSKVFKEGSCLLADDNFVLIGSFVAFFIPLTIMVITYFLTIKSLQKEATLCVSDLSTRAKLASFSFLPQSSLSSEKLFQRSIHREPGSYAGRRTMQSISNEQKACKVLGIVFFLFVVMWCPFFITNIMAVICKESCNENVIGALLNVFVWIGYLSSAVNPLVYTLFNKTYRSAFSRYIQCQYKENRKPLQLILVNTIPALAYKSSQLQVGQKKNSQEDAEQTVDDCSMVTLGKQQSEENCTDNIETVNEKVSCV
Protocol: Experiment 2: Affinity for Serotonin 2(5-HT2) Receptor (^3 H-Ketanserin Binding Test).
Preparation of crude synaptosome fraction and binding assay were conducted according to the method reported in Molecular Pharmacology, vol. 21, page 301, 1981 by Leysen et al.
Freezed cerebral cortex dissected out from rats were homogenized in 30 volumes of ice-cold 0.32M sucrose solution and the suspension was centrifuged at 1000×g for 10 minutes at 0° C. The supernatant was centrifuged at 40,000×g for 20 minutes at 0° C. and the resulting pellets was homogenized in 30 volumes of ice-cold 50 mM Tris-HCl buffer (pH 7.7) and incubated at 37° C. for 10 minutes. The suspension was centrifuged at 40,000×g for 20 minutes at 0° C. again. The resulting pellet was homogenized in 100 volumes of the above buffer and provided as synaptosome membranes solutiofifor the next assay.
To the aliquots (900μ) of synaptosome membranes solution were added 50 μl solution ^3 H-Ketanserin solution at the terminal concentration of 0.2 mM and 50 μl of test compound or its medium, and incubated at 37° C. for 20 minutes. After completion of the reaction, the mixture was rapidly vacuum-filtered through Whatman^R GF/B filters. The filters were washed three times with 5 ml of the above buffer, and then the radioactivity of the residue remaining on the filters was measured by liquid scintillation counter. Non specific binding was determined under the presence of 10 μM of mianserin. 50% inhibition concentration (ICY) of the test compound was graphically determined.

D2 receptor = target: T3, D2 receptor (Rattus norvegicus, UniProt P61169); assay: Affinity for Dopamine 2 (D2) receptor, 3H-Spiperone binding test (rat corpus striatum)
T3 construct: Freezed corpus striatum dissected out from rats were homogenized; from tissue; host or cells: rat corpus striatum, crude synaptosome membranes
T3 sequence (P61169 whole entry): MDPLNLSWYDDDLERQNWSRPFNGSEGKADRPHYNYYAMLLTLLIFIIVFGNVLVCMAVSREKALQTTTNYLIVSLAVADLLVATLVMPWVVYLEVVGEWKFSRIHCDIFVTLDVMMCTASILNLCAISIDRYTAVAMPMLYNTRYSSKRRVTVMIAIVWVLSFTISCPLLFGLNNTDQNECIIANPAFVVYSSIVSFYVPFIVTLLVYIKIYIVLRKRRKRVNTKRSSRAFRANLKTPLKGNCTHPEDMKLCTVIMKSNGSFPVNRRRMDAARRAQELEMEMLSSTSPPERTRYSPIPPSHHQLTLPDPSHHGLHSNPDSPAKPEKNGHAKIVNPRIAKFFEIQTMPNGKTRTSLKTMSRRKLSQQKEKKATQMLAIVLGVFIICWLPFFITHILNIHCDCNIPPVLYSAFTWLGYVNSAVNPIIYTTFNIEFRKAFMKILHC
Protocol: Experiment 3: Affinity for Dopamine 2 (D2) Receptor (^3 H-Spiperone Binding Test).
Preparation of crude synaptosome fraction and binding assays were conducted in accordance with the method reported in European Journal of Pharmacology, vol. 46, page 377, 1977 by I. Creese et al. Freezed corpus striatum dissected out from rats were homogenized in 100 volumes of ice-cold 50 mM Tris-HCl buffer (pH 7.7) and the suspension was centrifuged at 500×g for 10 minutes at 0° C. The supernatant was centrifuged at 50,000×g for 15 minutes at 0° C. and the resulting pellet was homogenized in 100 volumes of the above buffer and then the suspension was centrifuged at 50,000×g for 15 minutes at 0° C. again. The resulting pellet was homogenized in 150 volumes of 50 mM Tris-HCl buffer (pH 7.1) containing 120 mM potassium chloride, 2 mM calcium chloride, 1 mM magnesium chloride, 0.1% ascorbic acid and 10 μM pargyline. The suspension was incubated at 37° C. for 10 minutes and then provided as synaptosome membranes solution for the next assays. To the aliquots (900 μ) of synaptosome membranes solution were added 50 μl of 3H-Spiperone solution at the terminal concentration of 0.2 nM and 50 μl of test compound solution or 50 μl of its medium, and incubated at 37° C. for 20 minutes. After completion of the reaction, the mixture was rapidly vacuum-filtered through WhatmanR GF/B filters. The filters were washed three times with 5 ml of the above buffer, and then the radioactivity of the residue remaining on the filters was measured by liquid scintillation counter. Non specific binding was determined under presence of 100 μM of (L)-Sulpiride 50% inhibition concentration (IC50) of the test compound was graphically determined.

D1 receptor = D1 receptor binding (Binding Profile table)
[1] = 3H-Spiperone 0.2 nM, rat corpus striatum, 37° C., 20 minutes, read-out: Binding Profile IC50 D2
[2] = tritiated 8-OH-DPAT 0.2 nM, rat hippocampus, 37° C., 10 minutes, read-out: Binding Profile IC50 5-HT1A
[3] = read-out: Binding Profile IC50 5-HT1A, tritiated 8-OH-DPAT 0.2 nM, rat hippocampus, 37° C., 10 minutes

| IC50 (D2 receptor; [1]) | IC50 (5-HT1A receptor; [2]) | Compound | IC50 (5-HT1A receptor) | IC50 (5-HT2 receptor) | IC50 (D1 receptor) | IC50 (D2 receptor) | IC50 (5-HT1A receptor; [3]) | IC50 (D2 receptor; read-out: Binding Profile IC50 D2, 3H-Spiperone 0.2 nM, rat corpus striatum, 37° C., 20 minutes) |
| --- | --- | --- | --- | --- | --- | --- | --- | --- |
| 620 nM | 330 nM | C[C@H]1CN(C)[C@@H]2Cc3c(Br)[nH]c4cccc(c34)C=C21 [Example 4, 5β(10→9)abeo-9,10-Didehydro-2-bromo-6-methyl-8β-methyl-ergoline] | – | 1000 nM | 1920 nM | – | – | – |
| – | – | CSc1[nH]c2cccc3c2c1C[C@@H]1C(=C3)[C@@H](C)CN1C [Example 5, 5β(10→9)abeo-9,10-Didehydro-2-methylthio-6-methyl-8β-methyl-ergoline] | 800 nM | 800 nM | 2540 nM | 850 nM | – | – |
| 5000 nM | 100 nM | CC(=O)N1C[C@H]2C[C@@H]3C(=Cc4cccc1c42)[C@@H](C)CN3C [Example 34, 5β(10→9)abeo-2,3β-Dihydro-9,10-didehydro-1-acetyl-6-methyl-8β-methyl-ergoline] | – | > 10000 nM | > 10000 nM | – | – | – |
| 6030 nM | 530 nM | CC(=O)N1C[C@@H]2C[C@@H]3C(=Cc4cccc1c42)[C@@H](C)CN3C [Example 35, 5β(10→9)abeo-2,3α-Dihydro-9,10-didehydro-1-acetyl-6-methyl-8β-methyl-ergoline] | – | > 10000 nM | > 10000 nM | – | – | – |
| 4480 nM | 100 nM | C[C@H]1CN(C)[C@@H]2C[C@@H]3CN(C(N)=O)c4cccc(c43)C=C21 [Example 36, 5β(10→9)abeo-2,3β-Dihydro-9,10-didehydro-1-amino-carbonyl-6-methyl-8β-methyl-ergoline] | – | > 10000 nM | > 10000 nM | – | – | – |
| – | – | C[C@H]1CN(C)[C@@H]2C[C@@H]3CNc4ccc(Br)c(c43)C=C21 [Example 39, 5β(10→9)abeo-2,3β-Dihydro-9,10-didehydro-6-methyl-8β-methyl-12-bromo-ergoline] | 6 nM | 2080 nM | 7100 nM | 130 nM | – | – |
| 4870 nM | 3 nM | C[C@H]1CN(C)[C@@H]2C[C@@H]3CNc4ccc([N+](=O)[O-])c(c43)C=C21 [Example 40, 5β(10→9)abeo-2,3β-Dihydro-9,10-didehydro-6-methyl-8β-methyl-12 nitro-ergoline] | – | 1240 nM | 2750 nM | – | – | – |
| – | – | C[C@H]1CN(C)[C@@H]2Cc3c[nH]c4ccc([N+](=O)[O-])c(c34)C=C21 [Example 42, 5β(10→9)abeo-9,10-Didehydro-6-methyl-8β-methyl-14-nitro ergolina] | – | 1860 nM | > 10000 nM | – | 18 nM | 2000 nM |

| Compound | IC50 (D2 receptor; [1]) | IC50 (5-HT1A receptor; [2]) | IC50 (5-HT1A receptor) | IC50 (5-HT2 receptor) | IC50 (D1 receptor) | IC50 (D2 receptor) | IC50 (5-HT1A receptor; [3]) | IC50 (D2 receptor; read-out: Binding Profile IC50 D2, 3H-Spiperone 0.2 nM, rat corpus striatum, 37° C., 20 minutes) |
| --- | --- | --- | --- | --- | --- | --- | --- | --- |
| C[C@H]1CN(C)[C@@H]2Cc3c[nH]c4cccc(c34)C=C21 [Example 3, 5β(10→9)abeo-9,10-Didehydro-6-methyl-8β-methyl-ergoline] | 940 nM | – | 6 nM | 110 nM | 1850 nM | – | – | – |
| C[C@H]1CN(C)[C@@H]2C[C@@H]3CNc4cccc(c43)C=C21 [Example 33, 5β(10→9)abeo-2,3β-Dihydro-9,10-didehydro-6-methyl-8β-methyl-ergoline] | > 10000 nM | – | – | > 10000 nM | > 10000 nM | – | 6 nM | – |
